Experimental data taken from patent US5747517A, “Benzylidene rhodanines” (Eli Lilly and Company, priority 1996, dated 1998).

Assays:
cathepsin D = target: T1, cathepsin D (Homo sapiens, UniProt P07339); assay: Cathepsin D Inhibition Assay (non-cellular); format: biochemical; conditions: 10.0 μg/ml; read-out: Percent Inhibition (cathepsin D)
T1 construct: Human brain cathepsin D was purified from frozen post-mortem cortex; from tissue; host or cells: human tissue: brain cortex (Assay 1), liver (Assay 2, bought from Athens Research and Technology) or placenta (Assay 3); the results are not tied to one of them
Description: First, test compounds which inhibit exemplary aspartyl proteases, particularly cathepsin D, are identified as aspartyl protease inhibitors. As used herein, the term "test system" refers to an assay that is designed to measure aspartyl protease inhibitory activity. A typical test system used for such identification is a non-cellular assay where turnover of the protease substrate is monitored upon the administering of a protease inhibitor. The turnover of the protease […] is then compared to the turnover of substrate in a control test system in which no such aspartyl protease inhibitor has been administered. As used herein, the term "control test system" refers to an identical test system that is run side-by-side with the test system with the exception no aspartyl protease inhibitor is administered. This non-cellular assay is used to identify those test compounds having suitable aspartyl protease inhibitory activity in a non-cellular environment. An example of a non-cellular assay that may be used to determine in vitro aspartyl protease inhibitory activity reacts partially purified human brain cathepsin D with a substrate, e.g., porcine renin tetradecapeptide. The resultant reaction mixture is divided into portions and each portion is incubated for a different period of time. After the reaction is stopped, the turnover of substrate in each portion is determined using reverse-phase high performance liquid chromatography (HPLC). Protease inhibition activity may be calculated based on the rates of substrate turnover. This assay is exemplified in Assay 1, below. A second non-cellular assay for determining in vitro aspartyl protease inhibitory activity utilizes a microtiter plate, where a suitable aspartyl protease, such as a cathepsin D is added to each well together with controls. A suitable fluorometric substrate is added to each well. The resultant reaction mixture is allowed to react for a preselected time, e.g., 30 minutes. After enzyme activity is terminated, the substrate or its product may be determined fluorometrically and then the protease inhibition activity may be calculated based on the rates of substrate turnover. This assay is exemplified in Assay 2, below. CATHEPSIN D INHIBITION ACTIVITY (NON-CELLULAR ASSAY) Human brain cathepsin D was purified from frozen post-mortem cortex substantially in accordance with the method of Nixon and Morotta, (1984) J. Neurochem. 43:507-516. The cortex material was prepared and applied to a DEAE-Sepharose® column. The flow through fraction was dialyzed against 50 mM Tris-HCl, pH 7.5, and applied to concanavalin A Sepharose® and eluted with 50 mM Tris, pH 7.5, 0.5M methyl α-D-mannopyranoside. The eluted cathepsin D activity was dialyzed against 25 mM Tris, pH 7.5, and stored at -40° C. (Con A pool) until use. […] The substrate, a porcine renin tetradecapeptide,was added to each reaction mixture to yield a final concentration of 44 μM in a total volume of 300 μl. The samples were incubated at 37° C. for 0, 10, 20, or 30 minutes, and then boiled for 5 minutes to stop the reaction. The samples were centrifuged in a microcentrifuge for 10 minutes at 14,000 rpm at 4° C. After centrifugation, 200 μL of each reaction was injected onto a C18 reverse phase liquid chromatography column (Vydac, Hesperia, Calif.) with a Perkin Elmer ISS 100 autosampler and eluted with a gradient of 0-50% CH3 CN in 0.1% CF3 CO2 H at 2 ml/min. Peptide product peaks were monitored at 220 nm with a Perkin Elmer LC 95 detector and integrated with Rainin Dynamax software in order to quantitate activity. CATHEPSIN D INHIBITION ACTIVITY (NON-CELLULAR FLUOROMETIC ASSAY) A fluorometric assay was adapted from the method disclosed by Murakami et al., (1981) Anal. Biochem. 110:232-239 for measuring renin activity. […] Compound stocks were prepared by dissolving an aspartyl protease inhibitor in DMSO for each concentration tested in the assay and then 5 μL of compound stock was added to each of the wells prepared above. […]

[1] = tested on: β-amyloid peptide production in 293 751 SWE and CHO 751 SWE cells; assay: β-Amyloid Peptide Production Inhibition Activity In Cells (cellular assay, ELISA normalised to MTT); format: cell-based; conditions: 10.0 μg/ml; read-out: Percent Inhibition (β-amyloid peptide production)
Protocol: β-AMYLOID PEPTIDE […] (CELLULAR ASSAY)
Two cell lines (human kidney cell line 293 and Chinese hamster ovary cell line CHO) were stably transfected with the gene for APP751 containing the double mutation Lys651 -Met652 to Asn651 -Leu652 (APP-751 numbering) commonly called the Swedish mutation using the method described in Citron, et al., Nature 360:672-674 (1992). The transfected cell lines were designated as 293 751 SWE and CHO 751 SWE, and were plated in Corning 96 well plates at 2.5×10^4 or 1×10^4 cells per well respectively in Dulbecco's minimal essential media (DMEM) plus 10% fetal bovine serum. Following overnight incubation at 37° C. in an incubator equilibrated with 10% carbon dioxide (CO2), the media were removed and replaced with 200 μl per well of media containing an aspartyl protease inhibitor. After a two hour pretreatment period, the media were again removed and replaced with fresh media containing the aspartyl protease inhibitor and the cells were incubated for an additional two hours.
After treatment, plates were centrifuged at 1200 rpm for five minutes at room temperature to pellet cellular debris from the conditioned media. From each well, 100 μl of conditioned media were transferred into an ELISA plate precoated with antibody 266 against β-amyloid peptide(13-28) (Seubert et al., supra. ) and stored at 4° C. overnight. An ELISA assay employing labelled antibody 6C6 (against β-amyloid peptide-1-16) was run the next day to measure the amount of β-amyloid peptide produced.
Cytotoxic effects of the compounds were measured by a modification of the method of Hansen et al., (1989) J. Immun. Meth. 119:203-210. To the cells remaining in the tissue culture plate, was added 25 μl of a 3-(4,5-dimethylthiazol-2-yl)2,5-diphenyltetrazolium bromide (MTT) stock solution (5 mg/ml) to a final concentration of […]. Cells were incubated at 37° C. for one hour, and cellular activity was stopped by the addition of an equal volume of MTT lysis buffer (20% w/v sodium dodecylsulfate in 50% DMF, pH 4.7). Complete extraction was achieved by overnight shaking at room temperature. The difference in the OD562nm and the OD650nm was measured in a Uvmax microplate reader as an indicator of the cellular viability.
The results of the β-amyloid peptide ELISA were fit to a standard curve and expressed as ng/ml β-amyloid peptide. In order to normalize for cytotoxicity, these β-amyloid peptide results were divided by the MTT results and expressed as a percentage of the results from a drug-free control.

T1 sequence (P07339 169-412 limits assumed): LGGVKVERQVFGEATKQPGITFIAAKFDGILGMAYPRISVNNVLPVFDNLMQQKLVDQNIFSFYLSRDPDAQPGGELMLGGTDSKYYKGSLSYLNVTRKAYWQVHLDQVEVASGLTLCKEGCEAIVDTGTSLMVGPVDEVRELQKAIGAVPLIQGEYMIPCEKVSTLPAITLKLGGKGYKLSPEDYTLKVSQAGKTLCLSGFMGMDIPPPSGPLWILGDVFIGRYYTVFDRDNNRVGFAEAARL
T1 sequence (P07339 65-162 limits assumed): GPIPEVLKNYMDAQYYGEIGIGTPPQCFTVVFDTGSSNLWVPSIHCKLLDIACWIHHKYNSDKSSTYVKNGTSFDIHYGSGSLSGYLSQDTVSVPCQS

inhibition at 10 µg/mL (cathepsin D): 28%
Compound: O=C1NC(=S)SC1=Cc1ccc(Oc2ccccc2[N+](=O)[O-])cc1 [Example 5, 5-[[4-(2-nitrophenoxy)phenyl]methylene]-2-thioxo-4-thiazolidinone]
inhibition at 10 µg/mL [1]: 14%
